Test results published in US20240115718A1, “METHODS OF USING ANTI-CD79B IMMUNOCONJUGATES TO TREAT DIFFUSE LARGE B-CELL LYMPHOMA” (Genentech, Inc., priority 2021, published 2024).

System: patients with relapsed or refractory diffuse large B-cell lymphoma (R/R DLBCL)
Assay: Phase Ib/II study of Pola-R-Len, safety: adverse events graded per NCI CTCAE Version 4.0
Type: in vivo, human
Settings: in combination with polatuzumab vedotin 1.8 mg/kg and rituximab 375 mg/m^2; PO Days 1-21 of 28-day cycles
Method: Adverse events were assessed based on the National Cancer Institute Common Terminology Criteria for Adverse Events (NCI CTCAE; Version 4.0). Adverse events that are not specifically listed in the NCI CTCAE were graded as follows: • Grade 1: Mild; asymptomatic or mild symptoms; clinical or diagnostic observations only; or intervention not indicated. • Grade 2: Moderate; minimal, local, or non-invasive intervention indicated; or limiting age-appropriate instrumental activities of daily living. • Grade 3: Severe or medically significant, but not immediately life threatening; hospitalization or prolongation of hospitalization indicated; disabling; or limiting self-care activities of daily living. • Grade 4: Life-threatening consequences or urgent intervention indicated. • Grade 5: Death related to adverse event.
The following populations were defined: • The primary safety and efficacy populations included patients who received at least one dose of any component of the treatment combination. • The intent-to-treat population included patients enrolled in the study.

Nc1cccc2c1CN(C1CCC(=O)NC1=O)C2=O (stereo not shown) [lenalidomide]
recommended Phase II dose (RP2D): 20 mg
